{
  "source": "patent US20140038281A1",
  "about": "“SYSTEM FOR CARGO DELIVERY INTO THE CELLS” (CEPEP III AB, priority 2011, published 2014)",
  "system": "Hela pLuc 705 cells",
  "test": "Toxicity measurements (MTS cell proliferation assay)",
  "format": "cell-based",
  "conditions": "peptide:2'-OMe ON complexes, 200 nM ON, 24 hours, most effective concentrations (FIG. 6)",
  "method": "Cell proliferation was studied with CellTiter 96® A Queous Non-Radioactive Cell Proliferation Assay (MTS) according to the manufacturer's instructions. Briefly, 10000 Hela pLuc 705 cells per well were seeded 1 day prior to experiment on a 96-well plate in complete DMEM. Cells were treated with peptide: 2′-OMe ON complexes at four different molar ratios (5:1, 7:1, 10:1 and 20:1) for 4 hours in serum-free medium, followed by the addition of 10% serum containing medium and incubated for additional 20 hours. MTS was added according to the manufacturer's general protocol (Promega Biotech AB, Sweden). The conversion of MTS into aqueous, soluble formazan is accomplished by dehydrogenase enzymes found in metabolically active cells. The absorbance of formazan product was measured at 490 nm, which is directly proportional to the number of living cells in culture. Absorbance was measured on Tecan Sunrise microplate absorbance reader (Tecan Group Ltd., Switzerland) and the percentage of viable cells was determined using GraphPad Prism software 5.0 (Graphpad Software, CA, USA).",
  "data": [
    {"smiles": "CCCCCCCCCCCCCCCCCC(=O)N[C@@H](C)C(=O)NCC(=O)N[C@@H](Cc1ccc(OP(=O)(O)O)cc1)C(=O)N[C@@H](CC(C)C)C(=O)N[C@@H](CC(C)C)C(=O)NCC(=O)N[C@@H](CCCCN)C(=O)N[C@H](C(=O)N[C@@H](CC(N)=O)C(=O)N[C@@H](CC(C)C)C(=O)N[C@@H](CCCCN)C(=O)N[C@@H](C)C(=O)N[C@@H](CC(C)C)C(=O)N[C@@H](C)C(=O)N[C@@H](C)C(=O)N[C@@H](CC(C)C)C(=O)N[C@@H](C)C(=O)N[C@@H](CCCCN)C(=O)N[C@@H](CCCCN)C(=O)N[C@H](C(=O)N[C@@H](CC(C)C)C(N)=O)[C@@H](C)CC)[C@@H](C)O", "note": "[NickFect 1, Stearyl-AGY(PO3)LLGKTNLKALAALAKKIL-NH2]", "values": [
      {"measurement": "toxicity (cell viability by MTS)", "result": "not toxic"}
    ]},
    {"smiles": "CCCCCCCCCCCCCCCCCC(=O)N[C@@H](C)C(=O)NCC(=O)N[C@@H](Cc1ccc(O)cc1)C(=O)N[C@@H](CC(C)C)C(=O)N[C@@H](CC(C)C)C(=O)NCC(=O)N[C@@H](CCCCN)C(=O)N[C@H](C(=O)N[C@@H](CC(N)=O)C(=O)N[C@@H](CC(C)C)C(=O)N[C@@H](CCCCN)C(=O)N[C@@H](C)C(=O)N[C@@H](CC(C)C)C(=O)N[C@@H](C)C(=O)N[C@@H](C)C(=O)N[C@@H](CC(C)C)C(=O)N[C@@H](C)C(=O)N[C@@H](CCCCN)C(=O)N[C@@H](CCCCN)C(=O)N[C@H](C(=O)N[C@@H](CC(C)C)C(N)=O)[C@@H](C)CC)[C@@H](C)OP(=O)(O)O", "note": "[NickFect 2, Stearyl-AGYLLGKT(PO3)NLKALAALAKKIL-NH2]", "values": [
      {"measurement": "toxicity (cell viability by MTS)", "result": "not toxic"}
    ]}
  ]
}
